Laboratory results: PubChem BioAssay AID248 (DTP/NCI, 2004)
Where “and” joins values, the source holds several entries; their conditions need not be identical. Identical values can stand only once. Toxic doses and inconclusive results are not listed.

Test system: L1210 leukemia ip in BDF1 mice, survival T/C
Assay: NCI In Vivo Anticancer Drug Screen. Data for tumor model L1210 Leukemia (intraperitoneal) in B6D2F1 (BDF1) mice
Conditions: endpoint: mean survival time, higher = longer survival
Method in brief: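 Value reflects the ratio of survival in compound-treated mice to survival in vehicle-treated controls, with both groups carrying the same transplanted tumor.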

`O=NN(CCF)C(=O)NC1CCCCC1` was tested, and the T/C (dose: 0.33 mg/kg/injection, schedule: Q#B X003 (ip), vehicle: other) was 109 % of control, the T/C (dose: 0.66 mg/kg/injection, schedule: Q#B X003 (ip), vehicle: other) was 119 % of control and the T/C (dose: 0.93 mg/kg/injection, schedule: Q01DX001 (ip), vehicle: carboxymethylcellulose (CMC)) was 102 % of control. The T/C (dose: 1.33 mg/kg/injection, schedule: Q#B X003 (ip), vehicle: other) was 121 % of control, the T/C (dose: 1.56 mg/kg/injection, schedule: Q03HX032 (ip), vehicle: carboxymethylcellulose (CMC)) was 111 % of control and the T/C (dose: 1.87 mg/kg/injection, schedule: Q01DX001 (ip), vehicle: carboxymethylcellulose (CMC)) was 102 % of control. For the same molecule, the T/C (dose: 2.97 mg/kg/injection, schedule: Q01DX015 (ip), vehicle: other) was 96 % of control and 117 % of control, the T/C (dose: 3.12 mg/kg/injection, schedule: Q01DX001 (sc), vehicle: other) was 122 % of control and the T/C (dose: 3.12 mg/kg/injection, schedule: Q03HX008 (ip), vehicle: carboxymethylcellulose (CMC)) was 188 % of control. The T/C (dose: 3.12 mg/kg/injection, schedule: Q03HX032 (ip), vehicle: carboxymethylcellulose (CMC)) was 416 % of control, the T/C (dose: 3.12 mg/kg/injection, schedule: Q03HX032 (oral), vehicle: carboxymethylcellulose (CMC)) was 177 % of control and the T/C (dose: 3.75 mg/kg/injection, schedule: Q01DX001 (ip), vehicle: carboxymethylcellulose (CMC)) was 112 % of control. The T/C (dose: 5.0 mg/kg/injection, schedule: Q01DX001 (ip), vehicle: carboxymethylcellulose (CMC)) was 108 % of control, the T/C (dose: 6.0 mg/kg/injection, schedule: Q02DX008 (ip), vehicle: other) was 157 % of control and 160 % of control and the T/C (dose: 6.25 mg/kg/injection, schedule: Q01DX001 (sc), vehicle: other) was 117 % of control. The T/C (dose: 6.25 mg/kg/injection, schedule: Q01DX013 (ip), vehicle: carboxymethylcellulose (CMC)) was 122 % of control, the T/C (dose: 6.25 mg/kg/injection, schedule: Q03HX008 (oral), vehicle: carboxymethylcellulose (CMC)) was 605 % of control and the T/C (dose: 6.25 mg/kg/injection, schedule: Q03HX032 (oral), vehicle: carboxymethylcellulose (CMC)) was 288 % of control. For the same molecule, the T/C (dose: 6.25 mg/kg/injection, schedule: Q## X006 (ip), vehicle: carboxymethylcellulose (CMC)) was 111 % of control, the T/C (dose: 6.25 mg/kg/injection, schedule: Q## X006 (oral), vehicle: carboxymethylcellulose (CMC)) was 305 % of control and the T/C (dose: 6.75 mg/kg/injection, schedule: Q01DX015 (ip), vehicle: other) was 448 % of control and 489 % of control. The T/C (dose: 9.0 mg/kg/injection, schedule: Q02DX008 (ip), vehicle: other) was 345 % of control and 397 % of control, the T/C (dose: 10.0 mg/kg/injection, schedule: Q01DX015 (ip), vehicle: other) was 424 % of control and 524 % of control and the T/C (dose: 12.0 mg/kg/injection, schedule: Q## X004 (ip), vehicle: other) was 370 % of control and 608 % of control. For the same molecule, the T/C (dose: 12.5 mg/kg/injection, schedule: Q01DX001 (ip), vehicle: carboxymethylcellulose (CMC)) was 183 % of control, the T/C (dose: 12.5 mg/kg/injection, schedule: Q01DX001 (sc), vehicle: other) was 157 % of control and the T/C (dose: 12.5 mg/kg/injection, schedule: Q01DX013 (ip), vehicle: carboxymethylcellulose (CMC)) was 183 % of control. The T/C (dose: 12.5 mg/kg/injection, schedule: Q03HX032 (oral), vehicle: carboxymethylcellulose (CMC)) was 255 % of control, the T/C (dose: 12.5 mg/kg/injection, schedule: Q## X006 (ip), vehicle: carboxymethylcellulose (CMC)) was 155 % of control and the T/C (dose: 13.5 mg/kg/injection, schedule: Q01DX001 (ip), vehicle: other) was 187 % of control. For the same molecule, the T/C (dose: 13.5 mg/kg/injection, schedule: Q01DX001 (oral), vehicle: other) was 178 % of control and 183 % of control, the T/C (dose: 13.5 mg/kg/injection, schedule: Q02DX008 (ip), vehicle: other) was 456 % of control and 470 % of control and the T/C (dose: 13.5 mg/kg/injection, schedule: Q## X001 (ip), vehicle: other) was 247 % of control. The T/C (dose: 13.5 mg/kg/injection, schedule: Q## X001 (oral), vehicle: other) was 253 % of control, the T/C (dose: 14.0 mg/kg/injection, schedule: Q## X032 (ip), vehicle: other) was 341 % of control and the T/C (dose: 15.0 mg/kg/injection, schedule: Q01DX001 (ip), vehicle: carboxymethylcellulose (CMC)) was 174 % of control. The T/C (dose: 15.0 mg/kg/injection, schedule: Q01DX015 (ip), vehicle: other) was 158 % of control and 438 % of control, the T/C (dose: 16.2 mg/kg/injection, schedule: Q01DX001 (ip), vehicle: other) was 314 % of control and the T/C (dose: 18.0 mg/kg/injection, schedule: Q## X004 (ip), vehicle: other) was 601 % of control and 682 % of control. For the same molecule, the T/C (dose: 20.0 mg/kg/injection, schedule: Q01DX001 (ip), vehicle: carboxymethylcellulose (CMC)) was 250 % of control, the T/C (dose: 20.0 mg/kg/injection, schedule: Q02DX008 (ip), vehicle: other) was 380 % of control and 649 % of control and the T/C (dose: 22.0 mg/kg/injection, schedule: Q## X032 (ip), vehicle: other) was 240 % of control. The T/C (dose: 23.0 mg/kg/injection, schedule: Q01DX001 (ip), vehicle: other) was 238 % of control, the T/C (dose: 25.0 mg/kg/injection, schedule: Q01DX001 (ip), vehicle: carboxymethylcellulose (CMC)) was 192 % of control and the T/C (dose: 25.0 mg/kg/injection, schedule: Q01DX001 (oral), vehicle: carboxymethylcellulose (CMC)) was 616 % of control and 733 % of control. The T/C (dose: 25.0 mg/kg/injection, schedule: Q01DX001 (sc), vehicle: carboxymethylcellulose (CMC)) was 216 % of control, the T/C (dose: 25.0 mg/kg/injection, schedule: Q01DX001 (sc), vehicle: other) was 317 % of control and the T/C (dose: 25.0 mg/kg/injection, schedule: Q01DX005 (oral), vehicle: carboxymethylcellulose (CMC)) was 344 % of control. For the same molecule, the T/C (dose: 25.0 mg/kg/injection, schedule: Q## X006 (ip), vehicle: carboxymethylcellulose (CMC)) was 733 % of control, the T/C (dose: 25.0 mg/kg/injection, schedule: Q## X006 (oral), vehicle: carboxymethylcellulose (CMC)) was 355 % of control and the T/C (dose: 27.0 mg/kg/injection, schedule: Q01DX001 (ip), vehicle: other) was 241 % of control and 302 % of control. For the same molecule, the T/C (dose: 27.0 mg/kg/injection, schedule: Q01DX001 (oral), vehicle: other) was 264 % of control and 289 % of control, the T/C (dose: 27.0 mg/kg/injection, schedule: Q## X001 (ip), vehicle: other) was 447 % of control and the T/C (dose: 27.0 mg/kg/injection, schedule: Q## X001 (oral), vehicle: other) was 280 % of control and 426 % of control. For the same molecule, the T/C (dose: 27.0 mg/kg/injection, schedule: Q## X004 (ip), vehicle: other) was 412 % of control and 594 % of control, the T/C (dose: 30.0 mg/kg/injection, schedule: Q01DX001 (ip), vehicle: carboxymethylcellulose (CMC)) was 322 % of control and the T/C (dose: 30.0 mg/kg/injection, schedule: Q02DX008 (ip), vehicle: other) was 153 % of control and 256 % of control. The T/C (dose: 32.0 mg/kg/injection, schedule: Q## X032 (ip), vehicle: other) was 105 % of control, the T/C (dose: 36.0 mg/kg/injection, schedule: Q01DX001 (ip), vehicle: other) was 529 % of control and the T/C (dose: 40.0 mg/kg/injection, schedule: Q## X004 (ip), vehicle: other) was 209 % of control and 600 % of control. For the same molecule, the T/C (dose: 41.0 mg/kg/injection, schedule: Q## X001 (oral), vehicle: other) was 383 % of control, the T/C (dose: 45.0 mg/kg/injection, schedule: Q01DX001 (ip), vehicle: carboxymethylcellulose (CMC)) was 344 % of control and the T/C (dose: 48.0 mg/kg/injection, schedule: Q## X032 (ip), vehicle: other) was 114 % of control and 120 % of control. The T/C (dose: 50.0 mg/kg/injection, schedule: Q01DX001 (oral), vehicle: carboxymethylcellulose (CMC)) was 716 % of control, the T/C (dose: 50.0 mg/kg/injection, schedule: Q01DX001 (sc), vehicle: carboxymethylcellulose (CMC)) was 733 % of control and the T/C (dose: 50.0 mg/kg/injection, schedule: Q01DX005 (oral), vehicle: carboxymethylcellulose (CMC)) was 200 % of control. For the same molecule, the T/C (dose: 50.0 mg/kg/injection, schedule: Q04DX004 (ip), vehicle: carboxymethylcellulose (CMC)) was 183 % of control, the T/C (dose: 50.0 mg/kg/injection, schedule: Q04DX004 (oral), vehicle: carboxymethylcellulose (CMC)) was 205 % of control and the T/C (dose: 50.0 mg/kg/injection, schedule: Q## X006 (ip), vehicle: carboxymethylcellulose (CMC)) was 733 % of control. The T/C (dose: 50.0 mg/kg/injection, schedule: Q## X006 (oral), vehicle: carboxymethylcellulose (CMC)) was 116 % of control, the T/C (dose: 54.0 mg/kg/injection, schedule: Q01DX001 (ip), vehicle: carboxymethylcellulose (CMC)) was 282 % of control and the T/C (dose: 54.0 mg/kg/injection, schedule: Q01DX001 (oral), vehicle: other) was 352 % of control. The T/C (dose: 54.0 mg/kg/injection, schedule: Q## X001 (ip), vehicle: other) was 421 % of control, the T/C (dose: 54.0 mg/kg/injection, schedule: Q## X001 (oral), vehicle: other) was 226 % of control and the T/C (dose: 60.0 mg/kg/injection, schedule: Q## X004 (ip), vehicle: other) was 200 % of control. For the same molecule, the T/C (dose: 67.0 mg/kg/injection, schedule: Q01DX001 (ip), vehicle: carboxymethylcellulose (CMC)) was 289 % of control, the T/C (dose: 100.0 mg/kg/injection, schedule: Q01DX001 (oral), vehicle: carboxymethylcellulose (CMC)) was 166 % of control and 244 % of control and the T/C (dose: 100.0 mg/kg/injection, schedule: Q04DX004 (oral), vehicle: carboxymethylcellulose (CMC)) was 122 % of control. For the same molecule, the T/C (dose: 200.0 mg/kg/injection, schedule: Q01DX001 (oral), vehicle: carboxymethylcellulose (CMC)) was 155 % of control.
